Data: patent US11001892B2, “Methods of diagnosing endometriosis” (The Regents of the University of California, priority 2007, dated 2021)

Experiments:
[1] = tested on: endometrial stromal fibroblasts (ESFs); test: Regulation of steroidogenic enzymes in ESFs by cAMP and/or E2/P4, Q-PCR; type: cell-based, human
Description: ESFs were isolated from endometrial biopsies from 15 women with and 7 women without endometriosis. […] IGFBP1 and PRL protein secretion was measured by ELISA. […] Purity of ESF populations at passage 2 was evaluated by immunohistochemistry using cytokeratin, vimentin and CD45 antibodies. Endometrial tissue biopsies were obtained from mid-secretory phase endometrium from 5 women without and 5 women with severe endometriosis.

ERK = ERK 1/2 phosphorylation in cultured eutopic endometrial stromal cells; type: cell-based, human; settings: eutopic endometrial stromal cells from patients with endometriosis; treatment within 60 min; level then similar to cells from patients without endometriosis
From the text: Growth of ectopic endometrial tissues in the pelvic cavity, which is a hallmark of endometriosis, is associated with elevated levels of inflammatory cytokines and increased number of activated macrophages in the peritoneal environment. […] In this example, the expression of inflammatory-associated genes in cultured eutopic endometrial stromal cells from women with versus without endometriosis was examined using quantitative RT-PCR. […] Interleukin-1 beta and cyclooxygenase-2 mRNA expression were similar in cultured endometrial stromal cells from women with vs. without endometriosis. Cell proliferation was similar in eutopic endometrial stromal cells from women with versus without endometriosis when cultured in 0%, 2%, or 10% charcoal stripped FBS-containing medium or in the presence of insulin. Increased IL-8 production in endometriosis is accompanied by a strong increased phosphorylation of ERK ½ (P=0.04), a signaling molecule shown to activate IL-8 expression in endometrial stromal cells. […] Since phosphorylation of ERK and IL-8 expression increases cell migration and invasion of endometrial stromal cells, dysregulation of MAPK activity and IL-8 expression in the eutopic endometrial stromal cells of women with endometriosis may be associated with the pathophysiology and spread of the disease.

[2] = tested on: pro-MMP-3 or pro-MMP-7 secretion; settings: in vitro treatment of endometrial tissues from women with endometriosis; cited from earlier work
[3] = tested on: eutopic endometrium of women with endometriosis; settings: cited from earlier work
TOB1 = settings: cultured human endometrial stromal cells from women with endometriosis; cited from earlier work

## CC(=O)[C@H]1CC[C@H]2[C@@H]3CCC4=CC(=O)CC[C@]4(C)[C@H]3CC[C@]12C [P4, progesterone]
[1]; ESFs from women with vs without endometriosis
  Cyp17A1 (P450c17) expression: slightly down-regulated
[1]; ESFs, cAMP effect in women with endometriosis
  Aromatase (Cyp19A1) regulation: not regulated
[1]; P4 stimulated ESFs from women with endometriosis
  3βHSD1 expression: Down regulation
ERK
  high basal ERK phosphorylation: successfully diminished
[2]
  suppression of pro-MMP-3 or pro-MMP-7 secretion: fails to fully suppress
[3]; endometrial tissues from women with endometriosis treated in vitro
  prevention of the ability of tissues to establish experimental disease in mice: fails to prevent

## Cn1c(C#N)ccc1-c1ccc2c(c1)C(C)(C)OC(=S)N2 [tanaproget]
[3]; endometrial cell culture and nude mouse models
  progesterone insensitivity of eutopic endometrium of women with endometriosis: could be corrected

## IL-1β: a central cytokine in endometriosis
TOB1
  TOB1 expression: reduced TOB1 expression
